Laboratory results as given in article PMC7515829, “HKDC1 C-terminal based peptides inhibit extranodal natural killer/T-cell lymphoma by modulation of mitochondrial function and EBV suppression” (Leukemia, 2020).
Ends that are not written are not given here.

Experiments:
SNK6 cells [1] = conditions: read-out: IC50 (µM) SNK6, half-maximal cell death activity; SNK6 cells; peptides 0.1–15 µM, 6 h; PI staining, FACS; mean ± SEM, n in cell (Table 1)
Text: (§1) We investigated the potential role of HKDC1-based peptides in ENKTL cells that were isolated from the MNCs of ENKTL patients or SNK6 cell line. Three different kinds of HKDC1-based targeting peptides, including the last 15 aa at either the N-terminal (HKN15) or C-terminal (HKC15), or the last eight aa at the C-terminal (HKC8) were selected; four different kinds of cell-penetrating sequences were employed to deliver the HKDC1-based peptides, including Antp (a 16 penetrating residue long sequence from the Drosophila antennapedia-homeodomain), penetration-accelerating segment, TAT (HIV-1 TAT sequence), and Tf (the Tf receptor (TfR) internalization sequence) sequences. All of the aa with the D-configuration (marked as D) were synthesized as retro-inverso peptides. […] We then evaluated the toxic effect of two peptides (including Tf-D-HKC15 and Tf-D-HKC8) on different kinds of primary and cancer cell lines (see details in Table 2). […] We also evaluated the peptide delivery efficiency using ^125I-labeled uptake assay for both Tf-D-HKC8 and Tf-D-HKC15 peptides.
(§2) Measurement of apoptosis and cell death. Apoptosis was evaluated by TUNEL assay using the In Situ Cell Death Detection Kit™ (Roche). Cells were fixed in 4% paraformaldehyde and labeled with TUNEL reagents. Stained cells were photographed by a fluorescence microscope (11). For cell death analysis, the propidium iodide (PI) staining was performed by addition of 6.25 µg/ml of PI to the cells, and cell death was immediately evaluated by FACS analysis (3).

MNCs from ENKTL patients = conditions: read-out: IC50 (µM) ENKTL, half-maximal cell death activity, peptides 0.1–15 µM, 6 h, PI staining, FACS, mean ± SEM, n in cell
Text: as §1, §2

SNK6 cells [2] = experiment: Apoptosis rate by TUNEL assay; assay type: cell-based, human; conditions: 0.5 µM peptide, 6 h, compared with CTL group, n = 5 (Fig. 4h)
Method: as §2

SNK6 cells [3] = conditions: 0.5 µM peptide, 6 h, vs CTL, n = 3 (Fig. 5g)
Method: Immunostaining. […] The cells were then washed three times and the FITC labeled anti-mouse secondary antibody (1:100) was added for blotting for another 1 hour. After thorough washing, the slides were visualized and photographed, the nuclei of cells were stained with 4’,6-diamidino-2-phenylindole dihydrochloride (DAPI, #D9542, from Sigma), and the positive Ki-67 cells were quantitated.

SNK6 cells [4] = experiment: γH2AX formation (western blot); assay type: cell-based, human; conditions: 0.5 µM peptide, 6 h, vs CTL, n = 5 (Fig. 3d)
Method: (§3) Measurement of DNA breaks. 8-OHdG formation was measured using an OxiSelect™ Oxidative DNA Damage ELISA Kit (Cat No. STA320, from Cell Biolabs Inc.) per manufacturers’ instructions. The formation of γH2AX was measured from nuclear extracts by western blotting using H2AX as the input control (8).

SNK6 xenograft [5] = experiment: Mouse survival, Kaplan–Meier analysis; assay type: in vivo; conditions: nude mice, intratumoral 50 µM peptide every 2 days from day ~18, compared with CTL group, n = 9
Method: Statistical analysis. The data was given as mean ± SEM; all of the experiments were performed at least in quadruplicate unless otherwise indicated. One-way ANOVA followed by the Bonferroni post hoc test was used to determine statistical significance of different groups. The mouse survival curve was determined through Kaplan-Meier survival analysis using SPSS 22 software, and a P value < 0.05 was considered significant (8).

SNK6 cells [6] = experiment: ROS formation (CM-H2DCFDA); assay type: cell-based, human; conditions: 0.5 µM peptide, 6 h, compared with CTL group, n = 5 (Fig. 3a)
Method: Measurement of ROS generation. Treated cells were seeded in a 24-well plate and incubated with 10μM CM-H2DCFDA (Invitrogen) for 45 min at 37°C, and then the intracellular formation of reactive oxygen species (ROS) was measured at excitation/emission wavelengths of 485/530nm using a FLx800 microplate fluorescence reader (Bio-Tek). The data was normalized as arbitrary units (8, 11).

EBV = EBV viral genomes/cell by qPCR in SNK6 cells; assay type: cell-based; conditions: 0.5 µM peptide, 6 h, vs CTL, n = 4 (Fig. 3i)
Method: Detection of EBV copy number. Genomic DNA was extracted from treated SNK-6 cells or SNK-6 tumor tissue in mice using a QIAamp DNA Mini Kit (Qiagen). The EBV DNA copy number was measured through qPCR using 50ng of total DNA with EBV BMRF1 primers (see Table 1), and the results were normalized using cellular β-actin (primers see Table 1) as an internal control (13, 14). The Namalwa cell line, which contains 2 EBV viral genome copies, was used as a standard to prepare calibration curves for both EBV BMRF1 and β-actin genes, and the EBV viral load was presented as the number of viral genomes per cell (15, 16).

SNK6 xenograft [7] = experiment: SNK6 xenograft tumor volume; assay type: in vivo, mouse; conditions: nude mice, n = 5
Method: To measure malignant SNK6 xenograft growth, 100 µl of 1 × 10^5 SNK6 cells in PBS were mixed with 100 µl growth factor-reduced basement membrane matrix (Matrigel™, BD Biosciences) resulting in 200 µl of solution that was injected subcutaneously along the mouse flank at each intended tumor site. Tumor size was measured using a digital caliper and volume was calculated, and mice were randomly divided into four groups (n = 9 per group) when the tumor volume reached 50–100 mm^3 on day ~18 after tumor inoculation and given treatment as follows: Group 1 (control (CTL)) was intratumorally injected with HBSS buffer (5.33 mM KCl, 0.44 mM KH2PO4, 138 mM NaCl, 4 mM NaHCO3, 0.3 mM Na2HPO4, and 5.6 mM glucose, pH 7.3) containing 0.05% DMSO; Group 2 (Tf-D-HKN15) received HBSS buffer containing 0.05% DMSO with 50 µM Tf-D-HKN15 peptides; Group 3 (Tf-D-HKC15) received HBSS buffer containing 0.05% DMSO with 50 µM Tf-D-HKC15 peptides; Group 4 (Tf-D-HKC8) received HBSS buffer containing 0.05% DMSO with 50 µM Tf-D-HKC8 peptides. The xenografts were injected (two points, 20 µl per tumor) every 2 days. Beginning on the day of inoculation, mouse weight and tumor volume were monitored every 2 days. Mice were monitored for changes in body weight and sacrificed when values fell below 20% of their initial weight; the survival curve was calculated and the final tumor tissues were isolated for biomedical analysis.
To measure the malignant SNK6 xenograft growth, the 100µl of 1x10^5 SNK6 cells in PBS were mixed with 100µl growth factor-reduced basement membrane matrix (Matrigel™, BD Biosciences) resulting in 200µl of solution that was injected subcutaneously along the mouse flank at each intended tumor site. Tumor size was measured using a digital caliper and volume was calculated, and mice were randomly divided into 4 groups (n=9 per group) when the tumor volume reached 50-100 mm^3 on day ~18 after tumor inoculation: Group 1 (CTL) was intratumorally injected with HBSS buffer (5.33 mM KCl, 0.44 mM KH2PO4, 138 mM NaCl, 4 mM NaHCO3, 0.3 mM Na2HPO4, and 5.6 mM glucose, pH 7.3) containing 0.05% DMSO; Group 2 (Tf-D-HKN15) received HBSS buffer containing 0.05% DMSO with 50 µM Tf-D-HKN15 peptides; Group 3 (Tf-D-HKC15) received HBSS buffer containing 0.05% DMSO with 50 µM Tf-D-HKC15 peptides; Group 4 (Tf-D-HKC8) received HBSS buffer containing 0.05% DMSO with 50 µM Tf-D-HKC8 peptides. The xenografts were injected (two points, 20 µL per tumor) every two days. Beginning on the day of inoculation, mouse weight and tumor volume were monitored every 2 days. Mice were monitored for changes in body weight and sacrificed when values fell below 20% of their initial weight, the survival curve was calculated and the final tumor tissues were isolated for biomedical analysis.

SNK6 cells [8] = experiment: 3-nitrotyrosine formation (ELISA); assay type: cell-based, human; conditions: 0.5 µM peptide, 6 h, compared with CTL group, n = 5 (Fig. 3b)
Method: Antibodies for β-actin (sc-47778), EBV Ea-D (sc-58121), EBV ZEBRA (BZ1, sc-53904), Ki-67 (sc-101861) and VDAC1 (sc-390996) were obtained from Santa Cruz Biotechnology. Antibodies for HK2 (ab104836), H2AX (ab20669), γH2AX (ab2893) and P-gp (ab129450) were obtained from Abcam. The antibody for HKDC1 (NBP1-82108) was obtained from Novus Biologicals. 3-nitrotyrosine (3-NT) was measured by 3-Nitrotyrosine ELISA Kit (ab116691 from Abcam). Nuclear extracts were prepared using the NE-PER Nuclear and Cytoplasmic Extraction Reagents Kit (Pierce Biotechnology). Protein concentration was measured using the Coomassie Protein Assay Kit (Pierce Biotechnology) per manufacturers’ instructions.

SNK6 cells [9] = experiment: Cell proliferation by thymidine incorporation; assay type: cell-based, human; conditions: 0.5 µM peptide, 6 h, vs CTL, n = 5 (Fig. 5a)
Method: DNA synthesis by [^3H]-thymidine incorporation. Cell proliferation was evaluated as the rate of DNA synthesis by [^3H]-methylthymidine incorporation (17). […] At the end of the treatment, cells were incubated with serum-free media containing ^3H-methylthymidine (0.5 µCi/well) for 2 hours and then washed twice with PBS. Cellular DNA was precipitated using 10% trichloroacetic acid and solubilized with 0.4M NaOH (0.5 ml/well). Incorporation of ^3H-methylthymidine into the DNA was measured in a scintillation counter and was determined as counts per minute (CPM) (8).

HKDC1/VDAC1 = HKDC1/VDAC1 (Homo sapiens, UniProt P21796); experiment: IP/WB association of HKDC1 with VDAC1 in SNK6 cells; assay type: cell-based; design: endogenous in cells; host or cells: SNK6; conditions: 0.5 µM peptide, 6 h, vs CTL, n = 5 (Fig. 4c, d)
Method: Immunoprecipitation (IP) and Western Blotting (WB). Cell lysates were pre-cleared by pre-immune IgG plus Protein A agarose beads for 2 hours, and the supernatants were immunoprecipitated by the indicated antibodies and a 50% slurry of Protein A Agarose beads overnight at 4 °C (9). After washing with buffer containing 50 mM Tris, pH 7.5, 150 mM NaCl, 1% NP-40, and 0.5% deoxycholate with protease inhibitors, proteins were released, separated on 10% SDS-PAGE gels, blotted by primary antibodies, and then simultaneously incubated with the differentially labeled species-specific secondary antibodies, anti-RABBIT IRDye™ 800CW (green) and anti-MOUSE (or goat) ALEXA680 (red). Membranes were scanned and quantitated by the ODYSSEY Infrared Imaging System (LI-COR, NE) (10).

SNK6 cells [10] = experiment: 8-OHdG formation (DNA damage ELISA); assay type: cell-based, human; conditions: 0.5 µM peptide, 6 h, vs CTL, n = 5 (Fig. 3c)
Method: as §3

HKDC1/VDAC1, sequence (P21796 2-283 limits assumed): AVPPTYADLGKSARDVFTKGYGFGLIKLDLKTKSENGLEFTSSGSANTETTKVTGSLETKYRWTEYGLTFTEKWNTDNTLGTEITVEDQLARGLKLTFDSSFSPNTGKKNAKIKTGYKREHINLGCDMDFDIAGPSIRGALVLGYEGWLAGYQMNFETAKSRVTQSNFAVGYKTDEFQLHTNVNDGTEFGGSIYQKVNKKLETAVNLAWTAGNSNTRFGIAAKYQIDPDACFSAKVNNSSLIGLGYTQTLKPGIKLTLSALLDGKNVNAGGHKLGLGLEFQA

Substance | IC50 (SNK6 cells [1]) | IC50 (MNCs from ENKTL patients) | other results
GKPILFF-LQQAQKEN [PAS-D-HKC8] | 1.3 ± 0.3 µM | 1.1 ± 0.3 µM | 
GYGRKKRRQRRRGLQQAQKEN [TAT-HKC8] | 2 ± 0.4 µM | 1.9 ± 0.4 µM | 
HAIYPRHITAVAKRLQQAQKEN [Tf-HKC15] | 1.4 ± 0.3 µM | 1.2 ± 0.4 µM | 
HAIYPRH-EILNKEKK [Tf-D-Scram, reference compound] | > 15 µM | > 15 µM | 
HAIYPRHEILNKEKK [Tf-Scram, reference compound] | > 15 µM | > 15 µM | 
HAIYPRHLQQAQKEN [Tf-HKC8] | 0.7 ± 0.2 µM | 0.5 ± 0.2 µM | 
HAIYPRHMFAVHLMAFYFSKLK [Tf-HKN15] | > 15 µM | > 15 µM | 
GKPILFFLQQAQKEN [PAS-HKC8] | 1.4 ± 0.3 µM | 1.4 ± 0.4 µM | 
RQIKIWFQNRRMKWKKLQQAQKEN [Antp-HKC8] | 1.3 ± 0.3 µM | 1.3 ± 0.4 µM | 
GYGRKKRRQRRRG-LQQAQKEN [TAT-D-HKC8] | 1.7 ± 0.5 µM | 1.5 ± 0.7 µM | 
RQIKIWFQNRRMKWKK-LQQAQKEN [Antp-D-HKC8] | 1.2 ± 0.4 µM | 1 ± 0.3 µM | 
HAIYPRH-MFAVHLMAFYFSKLK [Tf-D-HKN15] | > 15 µM | > 15 µM | apoptosis rate increase (SNK6 cells [2]): no effect; cell proliferation by quantitation of Ki-67 positive cells (SNK6 cells [3]): no effect; γH2AX formation (SNK6 cells [4]): no effect; mouse survival (SNK6 xenograft [5]): little effect; ROS formation (SNK6 cells [6]): no effect; EBV genome copies (EBV): no effect; tumor volumes on day 36 (SNK6 xenograft [7]; intratumoral 50 µM peptide every 2 days from day ~18, day 36, vs CTL): no effect; tumor volumes on day 48 (SNK6 xenograft [7]; intratumoral 50 µM peptide every 2 days from day ~18, day 48, vs CTL): no effect; 3-nitrotyrosine formation (SNK6 cells [8]): no effect; thymidine incorporation (SNK6 cells [9]): no effect; association of HKDC1 with VDAC1 (HKDC1/VDAC1): no effect; 8-OHdG formation (SNK6 cells [10]): no effect
